# In PMC11223215, “Metronidazole Interaction with Cu^2+ and Zn^2+: Speciation Study in Aqueous Solution and Biological Activity Evaluation” (ACS Omega, 2024):
# Like-named read-outs stand apart in the source and are kept apart here.
# Experiments:
# Candida albicans = assay: In vitro activity against C. albicans; type: cell-based
# Description: (§1) The assays were performed at 37 °C in sterile 96-well microtiter plates, each well containing 10 μL of aqueous compound together with a bacterial/fungal/MRC-5 inoculum (190 μL; 5 × 10^3 CFU/mL). The compounds were tested at 64, 16, 4, 1, and 0.25 μ-mol L^–1. Bacterial/fungal/MRC-5 growth was compared to untreated-control wells (100% growth) and medium-control wells (0% cell growth). After 3 days of incubation, 50 μL of resazurin was added in each well. After 30 min at 37 °C, the fluorescence was measured at λex = 550 nm and λem = 590 nm. The results are expressed as % reduction in cell growth/viability compared to control wells, and IC50 values were determined.
# [1] = test system: Leishmania infantum (intracellular amastigotes); assay: In vitro activity against L. infantum; type: cell-based
# Staphylococcus aureus = assay: In vitro activity against S. aureus; type: cell-based; settings: resazurin
# Description: (§2) Briefly, S. aureus and E. coli were cultured in MHT (Mueller Hinton Broth) and maintained on TSA (Tryptone Soy Agar). T. cruzi, Tulahuen CL2 galactosidase strain (nifurtimox- sensitive), was maintained on MRC-5SV2 (human lung fibroblast) cells in MEM medium, supplemented with 200 mmol L^–1L-glutamine, 16.5 mmol L^–1 NaHCO3, and 5% inactivated fetal calf serum. The T. b. brucei Squib 427 strain (suramine-sensitive) and T. b. rhodesiense STIB-900 strain were maintained in Hirumi’s Modified Iscove’s medium-9 (HMI-9) medium, supplemented with 10% inactivated fetal calf serum. MRC-5SV2 cells were cultured in MEM + Earle’s salts-medium, supplemented with 2 mmol L^–1L-glutamine, 16.5 mmol L^–1 NaHCO3, and 5% inactivated fetal calf serum. All cultures were incubated at 37 °C under an atmosphere of 5% CO2.
# as §1
# Escherichia coli = assay: In vitro activity against E. coli; type: cell-based; settings: resazurin
# Description: as §2, §1
# Aspergillus fumigatus = assay: In vitro activity against A. fumigatus; type: cell-based
# Description: as §1
# [2] = test system: Primary peritoneal mouse macrophages (PMM); assay: Cytotoxicity on primary peritoneal mouse macrophages; type: cell-based
# [3] = test system: Trypanosoma brucei brucei Squib-427 strain, suramin-sensitive, trypomastigote stage; assay: In vitro activity against T. b. brucei; type: cell-based; settings: T. b. brucei Squib-427 trypomastigotes, 3 days, resazurin
# Description: as §2
# (§3) The assay was performed at 37 °C under an atmosphere of 5% CO2 in sterile 96-well microtiter plates, each well containing the aqueous compound (10 μL) dilution together with the parasite suspension [190 μL; 1.5 × 10^3 parasites/well (T. b. brucei) or 4 × 10^3 parasites/well (T. rhodesiense)]. The compounds were tested at 64, 16, 4, 1, and 0.25 μmol L^–1. Parasite growth was compared to untreated-infected controls and uninfected controls. After 3 days of incubation, parasite growth was assessed fluorimetrically after addition of resazurin [50 μL; 50 μg/mL in phosphate buffer] to each well. After 6 h (T. b. rhodesiense) or 24 h (T. b. brucei) at 37 °C, fluorescence was measured (λex 550 nm, λem 590 nm). The results were expressed as % reduction in parasite growth/viability compared to control wells, and an IC50 was calculated.
# [4] = test system: Trypanosoma cruzi Tulahuen CL2 amastigote stage; assay: In vitro activity against T. cruzi; type: cell-based; settings: T. cruzi Tulahuen CL2 amastigotes on MRC-5 cells, 7 days
# Description: as §2
# The assay was performed at 37 °C under an atmosphere of 5% CO2 in sterile 96-well microtiter plates, each well containing 10 μL of the aqueous compound together with MRC-5 cell/parasite inoculum (190 μL; 4 × 10^3 cells/well + 4 × 10^4 parasites/well). The compounds were tested at 64, 16, 4, 1, and 0.25 μmol L^–1. Parasite growth was compared to that of untreated-infected controls and uninfected controls. After 7 days of incubation, parasite burdens were assessed after adding the substrate CPRG [chlorophenolred β-D-galactopyranoside; 50 μL/well of a solution of CPRG (15.2 mg); and Nonidet (250 μL) in PBS (100 mL)]. The sample was analyzed spectrophotometrically at 540 nm after 4 h. The results were expressed as % reduction in parasite burden compared to control wells, and an IC50 was calculated.
# [5] = test system: Trypanosoma brucei rhodesiense STIB900 strain, drug susceptible, trypomastigote stage; assay: In vitro activity against T. b. rhodesiense; type: cell-based; settings: T. b. rhodesiense STIB900 trypomastigotes, 3 days, resazurin
# Description: as §2, §3
# [6] = test system: MRC-5 human fetal lung fibroblasts; assay: Cytotoxicity on MRC-5 cells; type: cell-based; settings: MRC-5 human fetal lung fibroblasts cytotoxicity
# Description: as §1, with “Briefly, S. aureus and E. coli were cultured in MHT (Mueller Hinton Broth) and maintained on TSA (Tryptone Soy Agar). […] The T. b. brucei Squib 427 strain (suramine-sensitive) and T. b. rhodesiense STIB-900 strain were maintained in Hirumi’s Modified Iscove’s medium-9 (HMI-9) medium, supplemented with 10% inactivated fetal calf serum. […] All cultures were incubated at 37 °C under an atmosphere of 5% CO2. The assays” for “The assays”
# [7] = Sequestering ability of MNZ (pL0.5) toward Ca2+; type: physicochemical; settings: toward Ca^2+, t = 37 °C, I = 0.15 mol L^–1, pH = 7.4
# Source text: (§4) The tendency of a ligand to complex a free metal cation in solution to form metal–ligand species is expressed as the sequestering ability. To describe the sequestering ability of a ligand toward a certain metal cation, however, the mere knowledge of formation constants is not enough as it is necessary to consider all the possible interactions that both ligand and metal cation may have with all the species present in solution. In order to define it quantitatively, the empirical parameter pL0.5 was introduced, which represents the cologarithm of the ligand concentration necessary to sequester 50% of the metal cation in traces.[34],[35] The calculation is based on the following Boltzmann-type sigmoidal equation: [drawing 33] 3 where χ is the sum of molar fractions of the different complex species and pL is the cologarithm of the total ligand concentration.
# (§5) A comparison between the sequestering ability of MNZ toward Zn^2, Cu^2+, and Ca^2+ (one of the main metal cations present in human body and previously studied in our recent work[30]) was evaluated under physiological conditions.
# [8] = Sequestering ability of MNZ (pL0.5) toward Zn2+; type: physicochemical; settings: toward Zn^2+, t = 37 °C, I = 0.15 mol L^–1, pH = 7.4
# Source text: as §4, §5
# [9] = Sequestering ability of MNZ (pL0.5) toward Cu2+; type: physicochemical; settings: toward Cu^2+, t = 37 °C, I = 0.15 mol L^–1, pH = 7.4
# Source text: as §4, §5
# [10] = Cytotoxicity on primary peritoneal mouse macrophages; type: cell-based; settings: primary peritoneal mouse macrophages (PMM)
# [11] = Cytotoxicity on MRC-5 cells; type: cell-based; settings: MRC-5 SV2 human fetal lung fibroblasts; MRC-5 human fetal lung fibroblasts cytotoxicity
# Description: as §1, with “Briefly, S. aureus and E. coli were cultured in MHT (Mueller Hinton Broth) and maintained on TSA (Tryptone Soy Agar). […] The T. b. brucei Squib 427 strain (suramine-sensitive) and T. b. rhodesiense STIB-900 strain were maintained in Hirumi’s Modified Iscove’s medium-9 (HMI-9) medium, supplemented with 10% inactivated fetal calf serum. […] All cultures were incubated at 37 °C under an atmosphere of 5% CO2. The assays” for “The assays”
# [12] = Candida albicans, read-out: IC50
# [13] = Leishmania infantum, read-out: IC50
# [14] = Staphylococcus aureus, read-out: IC50
# [15] = Escherichia coli, read-out: IC50
# [16] = Trypanosoma cruzi, MRC5, 168 h, read-out: IC50
# [17] = Trypanosoma brucei, 72 h, read-out: IC50
smiles,measurement,setting,value
Nc1[nH]c(=O)ncc1F [Flucytosine],IC50,Candida albicans; [12],0.51 µg/mL
CCCCCCCCCCCCCCCCOP(=O)([O-])OCC[N+](C)(C)C [Miltefosine],IC50,[1]; [13],2.05 µg/mL
C[C@H]1c2cccc(O)c2C(=O)C2=C(O)[C@]3(O)C(=O)C(C(N)=O)=C(O)[C@@H](N(C)C)[C@@H]3[C@@H](O)[C@@H]21 [Doxycycline],IC50,Staphylococcus aureus; [14],0.08 µg/mL
same,IC50,Escherichia coli; [15],0.64 µg/mL
[Cl-].[Cl-].[Zn+2] [Zn^2+],IC50,[1],>1.79 µg/mL
same,IC50,Staphylococcus aureus,>1.79 µg/mL
same,IC50,Aspergillus fumigatus,>1.79 µg/mL
same,IC50,Candida albicans,>1.79 µg/mL
same,CC50,[2],>1.79 µg/mL
same,IC50,[3],>1.79 µg/mL
same,IC50,[4],>1.79 µg/mL
same,IC50,Escherichia coli,>1.79 µg/mL
same,IC50,[5],>1.79 µg/mL
same,CC50,[6],>1.79 µg/mL
O=C(Cn1ccnc1[N+](=O)[O-])NCc1ccccc1 [Benznidazol],IC50,[4]; [16],0.43 µg/mL
[Cl][Cu][Cl] [Cu^2+],IC50,[1],>2.42 µg/mL
same,IC50,Staphylococcus aureus,>2.42 µg/mL
same,IC50,Aspergillus fumigatus,>2.42 µg/mL
same,IC50,Candida albicans,>2.42 µg/mL
same,CC50,[2],>2.42 µg/mL
same,IC50,[3],0.75 µg/mL
same,IC50,[4],>2.42 µg/mL
same,IC50,Escherichia coli,>2.42 µg/mL
same,IC50,[5],0.94 µg/mL
same,CC50,[6],>2.42 µg/mL
"Cc1ncc([N+](=O)[O-])n1CCO [MNZ(L), 2-methyl-5-nitro-1H-imidazole-1-ethanol]",IC50,[1]; [13],> 5.64 µg/mL
same,pL0.5,[7],1.9
same,IC50,Staphylococcus aureus; [14],> 5.64 µg/mL
same,pL0.5,[8],3.1
same,IC50,"Aspergillus fumigatus; Aspergillus fumigatus, read-out: IC50",> 5.64 µg/mL
same,pL0.5,[9],4.3
same,IC50,Candida albicans; [12],> 5.64 µg/mL
same,CC50,[10],> 5.64 µg/mL
same,IC50,[3]; [17],> 5.64 µg/mL
same,IC50,[4]; [16],> 5.64 µg/mL
same,IC50,Escherichia coli; [15],> 5.64 µg/mL
same,IC50,[5]; [17],> 5.64 µg/mL
same,CC50 at 3 days,[11],> 5.64 µg/mL
Cc1ccc(C(=O)Nc2ccc(S(=O)(=O)O)c3cc(S(=O)(=O)O)cc(S(=O)(=O)O)c23)cc1NC(=O)c1cccc(NC(=O)Nc2cccc(C(=O)Nc3cc(C(=O)Nc4ccc(S(=O)(=O)O)c5cc(S(=O)(=O)O)cc(S(=O)(=O)O)c45)ccc3C)c2)c1 [Suramine],IC50,[3]; [17],0.03 µg/mL
same,IC50,[5]; [17],0.07 µg/mL
